Data from the SangsterLogP compilation.

Experiments:
[1] = method code SF-CR+AS, from DOI: 10.1016/0003-9861(68)90547-x, PMID: 5677592
[2] = method code SF-CR, from DOI: 10.1016/0003-9861(68)90547-x, PMID: 5677592
[3] = method code SF-AQ, from DOI: 10.1016/0003-9861(68)90547-x, PMID: 5677592

Row | SMILES | logP [1] | further results
1 | CC(C)c1cccc(O[C@@H]2O[C@H](CO)[C@H](O)[C@H](O)[C@H]2O)c1 | 0.65 | 
2 | Nc1ccc(O[C@@H]2O[C@H](CO)[C@@H](O)[C@H](O)[C@H]2O)cc1 | -2.67 | 
3 | CC(C)(C)c1cc(OC2OC(CO)C(O)C(O)C2O)cc(C(C)(C)C)c1 (stereo unspecified) |  | logP [2]: 2.73
4 | COc1cccc(O[C@@H]2O[C@H](CO)[C@@H](O)[C@H](O)[C@H]2O)c1 | -0.52 | 
5 | OC[C@H]1O[C@@H](Oc2ccc(O)cc2)[C@H](O)[C@@H](O)[C@@H]1O | -1.35 | 
6 | Cc1ccc(C(C)C)c(O[C@@H]2O[C@H](CO)[C@@H](O)[C@H](O)[C@H]2O)c1 | 1.07 | 
7 | CC(C)(C)c1cccc(O[C@@H]2O[C@H](CO)[C@@H](O)[C@H](O)[C@H]2O)c1 | 1.01 | 
8 | COc1ccc(O[C@@H]2O[C@H](CO)[C@@H](O)[C@H](O)[C@H]2O)cc1 | -0.73 | 
9 | CCc1cccc(O[C@@H]2O[C@H](CO)[C@@H](O)[C@H](O)[C@H]2O)c1 | 0.31 | 
10 | Cc1cc(C)cc(O[C@@H]2O[C@H](CO)[C@@H](O)[C@H](O)[C@H]2O)c1 | 0.26 | 
11 | OC[C@H]1O[C@@H](Oc2ccc(Cl)cc2)[C@H](O)[C@@H](O)[C@@H]1O |  | logP [3]: 0.26
12 | CC(C)(C)c1ccc(O[C@@H]2O[C@H](CO)[C@@H](O)[C@H](O)[C@H]2O)cc1 | 1.18 | 
13 | OC[C@H]1O[C@@H](OC2CCCCC2)[C@H](O)[C@@H](O)[C@@H]1O | -0.63 | 
14 | OC[C@H]1O[C@@H](Oc2cccc(C(F)(F)F)c2)[C@H](O)[C@@H](O)[C@@H]1O | 0.49 | 

The next lines start with results.

Row | logP [1] | SMILES | further results
15 | -0.71 | OC[C@H]1O[C@@H](Oc2ccccc2)[C@H](O)[C@@H](O)[C@@H]1O | 
16 | -0.16 | Cc1ccc(O[C@@H]2O[C@H](CO)[C@@H](O)[C@H](O)[C@H]2O)cc1 | 
17 | 0.75 | OC[C@H]1O[C@@H](Oc2ccc(I)cc2)[C@H](O)[C@@H](O)[C@@H]1O | 
18 | -0.78 | O=[N+]([O-])c1ccccc1O[C@@H]1O[C@H](CO)[C@@H](O)[C@H](O)[C@H]1O | 
19 | -1.23 | Nc1ccccc1O[C@@H]1O[C@H](CO)[C@@H](O)[C@H](O)[C@H]1O | 
20 | -1.22 | OCc1ccccc1O[C@@H]1O[C@H](CO)[C@@H](O)[C@H](O)[C@H]1O | 
21 | -1.04 | COc1ccccc1O[C@@H]1O[C@H](CO)[C@@H](O)[C@H](O)[C@H]1O | 
22 | -0.2 | Cc1cccc(O[C@@H]2O[C@H](CO)[C@@H](O)[C@H](O)[C@H]2O)c1 | 
23 | -0.7 | OC[C@H]1OC(OCc2ccccc2)[C@H](O)[C@@H](O)[C@@H]1O (stereo partly specified) | 
24 | 0.27 | OC[C@H]1O[C@@H](Oc2ccccc2I)[C@H](O)[C@@H](O)[C@@H]1O | 
25 | 0.76 | OC[C@H]1O[C@@H](Oc2ccc3ccccc3c2)[C@H](O)[C@@H](O)[C@@H]1O | 
26 | -0.16 | Cc1ccccc1O[C@@H]1O[C@H](CO)C(O)[C@H](O)[C@H]1O (stereo in doubt) | 
